Assay results reported in patent US20240148821A1, “PHARMACEUTICAL USE OF CYCLIC PEPTIDE COMPOUND” (CHUGAI SEIYAKU KABUSHIKI KAISHA, priority 2021, published 2024).
Numbered stars: 1 amine (or outer) side, 2 acyl side, 3 side chain; on linkers, the order of the positions; unused ones are H or OH. Bridge positions count the residues as written; N and C are the ends. Square brackets hold non-standard residues; d marks the D form. Peptide text beside a SMILES is read from it. * marks the point of attachment. hPhe(3-Cl-4-CF3) = N[C@@H](CCc1ccc(C(F)(F)F)c(Cl)c1)C(=O)O; hPhe(3-F,4-CF3) = N[C@@H](CCc1ccc(C(F)(F)F)c(F)c1)C(=O)O; 3Oxa8azabicyclo(3.2.1)octane = C1CC2COCC1N2*; NMePhe(4-Cl) = CN[C@@H](Cc1ccc(Cl)cc1)C(=O)O; NMedβ3hAla = C[C@H](CC(=O)[*:2])N(C)[*:1]; X72 = O=C([C@@H]1Cc2ccccc2N1[*:1])[*:2]; NMeGly(cPent) = CN[C@H](C(=O)O)C1CCCC1; Phe(3-I) = N[C@@H](Cc1cccc(I)c1)C(=O)O; NMeCha = CN[C@@H](CC1CCCCC1)C(=O)O; NMeCba = CN[C@@H](CC1CCC1)C(=O)O; NMeChg = CN[C@H](C(=O)O)C1CCCCC1; dNMeF = CN[C@H](Cc1ccccc1)C(=O)O; NMeβAla = CN(CCC(=O)[*:2])[*:1]; NMeD = CN[C@@H](CC(=O)O)C(=O)O; NMeL = CN[C@@H](CC(C)C)C(=O)O; NMehSer = CN[C@@H](CCO)C(=O)O; Pip = O=C(O)[C@@H]1CCCCN1; NMeA = CN[C@@H](C)C(=O)O; NMeAib = CNC(C)(C)C(=O)O; Nle = CCCC[C@H](N)C(=O)O; Piperidide = C1CCN(*)CC1; Ac5c = NC1(C(=O)O)CCCC1; Aze = O=C(O)[C@@H]1CCN1; Thp = NC1(C(=O)O)CCOCC1; Sar = CNCC(=O)O

Each compound was assayed on Human pancreatic cancer cell line AsPC-1 (G12D mutation Kras) (assay: AsPC-1 cell growth inhibition (AsPC-1 CGI)). Conditions: read-out: AsPC-1 cell growth inhibition, 50% growth inhibitory concentration (IC50 value); 96 hours, CellTiter-Glo, values classified in ranges.
Type: cell-based
Protocol: Test compounds were serially dilated with dimethyl sulfoxide, and 200 nL was then dispensed to a U-bottom 96-well plate using Labcyte Echo. […] The cell suspension was dispensed to a. plate containing a test compound at 100 μL per well and incubated at 37° C. in a 5% carbon dioxide gas incubator. 96 hours later, 80 μL of CellTiter-Glo (Promega) was added to each well and fluorescence was measured.

| Structure (SMILES) | IC50 [nM] |
| --- | --- |
| CC[C@H](C)[C@@H]1NC(=O)[C@H](CC(C)C)N(C)C(=O)C[C@@H](C(=O)N2CCCCC2)N(C)C(=O)[C@H](C2CCCCC2)N(C)C(=O)C2(CCCC2)NC(=O)[C@@H]2CCCN2C(=O)[C@H](CCc2ccc(C(F)(F)F)c(Cl)c2)NC(=O)[C@H](C)N(C)C(=O)[C@H](CC2CCCCC2)N(C)C(=O)CN(C)C(=O)CN(C)C1=O [Compound 722] ([NMeL]I[Sar][Sar][NMeCha][NMeA][hPhe(3-Cl-4-CF3)]P[Ac5c][NMeChg][NMeD]-Piperidide; lactam N-11) | > 500 |
| CC[C@H](C)[C@@H]1NC(=O)[C@H](CC(C)C)N(C)C(=O)C[C@@H](C)N(C)C(=O)[C@H](CC2CCC2)N(C)C(=O)C2(CCCC2)NC(=O)[C@@H]2CCCN2C(=O)[C@H](CCc2ccc(C(F)(F)F)c(Cl)c2)NC(=O)CN(C)C(=O)[C@H](CC2CCCCC2)N(C)C(=O)CN(C)C(=O)CN(C)C1=O [Compound 723] (cyclo([Ac5c][NMeCba][NMedβ3hAla][NMeL]I[Sar][Sar][NMeCha][Sar][hPhe(3-Cl-4-CF3)]P)) | > 500 |
| CC[C@H](C)[C@@H]1NC(=O)[C@H](CC(C)C)N(C)C(=O)C[C@@H](C(=O)N2CCCCC2)N(C)C(=O)[C@H](C2CCCCC2)N(C)C(=O)C2(CCCC2)NC(=O)[C@@H]2Cc3ccccc3N2C(=O)[C@H](CCc2ccc(C(F)(F)F)c(Cl)c2)NC(=O)CN(C)C(=O)[C@H](CC2CCCCC2)N(C)C(=O)[C@@H]2CCN2C(=O)CN(C)C1=O [Compound 725] ([NMeL]I[Sar][Aze][NMeCha][Sar][hPhe(3-Cl-4-CF3)][X72][Ac5c][NMeChg][NMeD]-Piperidide; lactam N-11) | > 500 |
| CC[C@H](C)[C@@H]1NC(=O)[C@H](CC(C)C)N(C)C(=O)C[C@@H](C(=O)N2CCCCC2)N(C)C(=O)[C@H](C2CCCCC2)N(C)C(=O)C2(CCCC2)NC(=O)[C@@H]2CCCCN2C(=O)[C@H](CCc2ccc(C(F)(F)F)c(Cl)c2)NC(=O)CN(C)C(=O)[C@H](CC2CCCCC2)N(C)C(=O)CN(C)C(=O)CN(C)C1=O [Compound 728] ([NMeL]I[Sar][Sar][NMeCha][Sar][hPhe(3-Cl-4-CF3)][Pip][Ac5c][NMeChg][NMeD]-Piperidide; lactam N-11) | > 500 |
| CC[C@H](C)[C@@H]1NC(=O)[C@H](CC(C)C)N(C)C(=O)C[C@@H](C(=O)N2C3CCC2COC3)N(C)C(=O)[C@H](C2CCCC2)N(C)C(=O)C2(CCCC2)NC(=O)[C@@H]2CCCN2C(=O)[C@H](CCc2ccc(C(F)(F)F)c(F)c2)NC(=O)CN(C)C(=O)[C@H](CC2CCCCC2)N(C)C(=O)[C@@H]2CCN2C(=O)[C@H](C)N(C)C1=O [Compound 734] ([NMeL]I[NMeA][Aze][NMeCha][Sar][hPhe(3-F,4-CF3)]P[Ac5c][NMeGly(cPent)][NMeD]-{3Oxa8azabicyclo(3.2.1)octane}; lactam N-11) | ≤ 20 |
| CC[C@H](C)[C@@H]1NC(=O)[C@H](CC(C)C)N(C)C(=O)C[C@@H](C(=O)N(C)C)N(C)C(=O)[C@H](C2CCCC2)N(C)C(=O)[C@H](C)NC(=O)[C@@H](C)NC(=O)[C@H](CCc2ccc(C(F)(F)F)c(Cl)c2)NC(=O)CN(C)C(=O)[C@H](CC2CCCCC2)N(C)C(=O)[C@@H]2CCN2C(=O)[C@H](C)N(C)C1=O [Compound 736] ([NMeL]I[NMeA][Aze][NMeCha][Sar][hPhe(3-Cl-4-CF3)][dA]A[NMeGly(cPent)][NMeD]-NMe2; lactam N-11) | > 500 |
| CC[C@H](C)[C@@H]1NC(=O)[C@H](CC(C)C)N(C)C(=O)C[C@@H](C)N(C)C(=O)[C@H](CC(C)C)N(C)C(=O)C2(CCOCC2)NC(=O)[C@@H]2CCCN2C(=O)[C@H](CCc2ccc(C(F)(F)F)c(Cl)c2)NC(=O)CN(C)C(=O)[C@H](CC2CCCCC2)N(C)C(=O)CN(C)C(=O)CN(C)C1=O [Compound 742] (cyclo(I[Sar][Sar][NMeCha][Sar][hPhe(3-Cl-4-CF3)]P[Thp][NMeL][NMedβ3hAla][NMeL])) | > 500 |
| CC[C@H](C)[C@@H]1NC(=O)[C@H](CC(C)C)N(C)C(=O)C[C@@H](C(=O)N2CCCCC2)N(C)C(=O)[C@H](CCOC)N(C)C(=O)C2(CCCC2)NC(=O)[C@@H]2CCCN2C(=O)[C@H](CCc2ccc(C(F)(F)F)c(Cl)c2)NC(=O)CN(C)C(=O)[C@H](CC2CCCCC2)N(C)C(=O)CN(C)C(=O)CN(C)C1=O [Compound 744] ([NMeL]I[Sar][Sar][NMeCha][Sar][hPhe(3-Cl-4-CF3)]P[Ac5c][NMehSer](Me)[NMeD]-Piperidide; lactam N-11) | > 500 |
| CC[C@H](C)[C@@H]1NC(=O)CCN(C)C(=O)[C@@H](Cc2ccccc2)N(C)C(=O)[C@H](C2CCCC2)N(C)C(=O)C2(CCCC2)NC(=O)[C@@H]2CCCN2C(=O)[C@H](CCc2ccc(C(F)(F)F)c(Cl)c2)NC(=O)CN(C)C(=O)[C@H](CC2CCCCC2)N(C)C(=O)CN(C)C(=O)CN(C)C1=O [Compound 753] (cyclo([Ac5c][NMeGly(cPent)][dNMeF][NMeβAla]I[Sar][Sar][NMeCha][Sar][hPhe(3-Cl-4-CF3)]P)) | > 500 |
| CCCC[C@@H]1NC(=O)C(C)(C)N(C)C(=O)[C@H](CCCC)NC(=O)[C@H](Cc2cccc(I)c2)NC(=O)CN(C)C(=O)[C@H](Cc2ccc(Cl)cc2)N(C)C(=O)CN(C)C(=O)CN(C)C(=O)[C@H]([C@@H](C)CC)NC(=O)[C@H](CC(C)C)N(C)C(=O)C[C@@H](C(=O)N2CCCCC2)N(C)C1=O [Compound 765] ([NMeL]I[Sar][Sar][NMePhe(4-Cl)][Sar][Phe(3-I)][Nle][NMeAib][Nle][NMeD]-Piperidide; lactam N-11) | > 500 |
